Holding throughout (format): cell-based
In assay [1] the test system is Coriolus versicolor. The experiment in a line: Biocidal effect on wood-destroying fungi, white-rotters (agar plate mycelium growth). The settings on record: Trametes versicolor; no growth observed; malt extract agar, 26° C.; max. tested 1000 ppm; read-out: Minimum Inhibitory Concentration (MIC). As to the method: (§1) Tests were made to determine the biocidal properties of the epicatechin-4-alkylsulfides prepared in Examples 1 and 2 on different wood-rotting fungi and bacteria.
(§2) Agar plates containing the epicatechin-4-alkylsulfide to be tested were prepared by adding one part of an ethanol solution containing a known concentration of the test compound to 99 parts of molten malt extract agar. After thorough mixing, the medium was poured into 8 cm petri dishes. When the agar had cooled and hardened, the plates were inoculated by placing in the center of the plate a 5 mm diameter plug taken from an agar plate containing an actively growing culture of the test organism and incubated at 26° C. The diameter of the mycelium formed was measured when the culture on a control plate (containing no test compound) had reached the perimeter of the petri dish, or after seven days, whichever came first. Three duplicates were run for each test compound/test organism combination.

In assay [2] the test system is Phanerochaete chrysosporium. Described as above. The note with it: Phanerodontia chrysosporium; no growth observed; malt extract agar, 26° C.; max. tested 1000 ppm; read-out: Minimum Inhibitory Concentration (MIC). How it is done: as §1, §2
Assay [3] concerns Pycnoporus cinnabarinus. The assay is described as above. The settings on record: Trametes cinnabarina; no growth observed; malt extract agar, 26° C.; max. tested 1000 ppm; read-out: Minimum Inhibitory Concentration (MIC). As to the method: as §1, §2
Assay [4] has as its system Geophyllum trabeum. The experiment in a line: Biocidal effect on wood-destroying fungi, brown-rotters (agar plate mycelium growth). The note with it: no growth observed; malt extract agar, 26° C.; max. tested 1000 ppm; read-out: Minimum Inhibitory Concentration (MIC). As to the method:
as §1, §2

Assay [5] concerns Poria placenta. The assay is described as above. The note with it: no growth observed; malt extract agar, 26° C.; max. tested 1000 ppm; read-out: Minimum Inhibitory Concentration (MIC). How it is done:
as §1, §2

The subject of assay [6] is Wolfiporia cocos. Described as above. The settings on record: no growth observed, malt extract agar, 26° C., max. tested 1000 ppm, read-out: Minimum Inhibitory Concentration (MIC). How it is done: as §1, §2
Assay [7] deals with Chaetomium globosom. The experiment in a line: Biocidal effect on wood-destroying fungi, soft-rotters (agar plate mycelium growth). The note with it: no growth observed, malt extract agar, 26° C., max. tested 1000 ppm, read-out: Minimum Inhibitory Concentration (MIC). How it is done:
as §1, §2

The subject of assay [8] is Lecythophora hoffmannii. The assay is described as above. The settings on record: Coniochaeta hoffmannii; no growth observed; malt extract agar, 26° C.; max. tested 1000 ppm; read-out: Minimum Inhibitory Concentration (MIC). As to the method:
as §1, §2

In assay [9] the test system is Scytalidium lignicola. Described as above. The settings on record: no growth observed, malt extract agar, 26° C., max. tested 1000 ppm, read-out: Minimum Inhibitory Concentration (MIC). How it is done:
as §1, §2

Assay [10] concerns Enterobacter cloacae. The experiment in a line: Biocidal effect on bacteria, gram-negative (agar plate). The settings on record: 24 h, read-out: Minimum Inhibitory Concentration (MIC). As to the method:
as §1
(§3) Agar plates containing the test compounds were made as above, but with brain-heart infusion agar. The plates were inoculated with a standardized suspension of bacterial cells using a calibrated 3 mm loop and incubated at 35° C. After one day (two days for Micrococcus luteus), the number of resulting bacteria cultures were counted. Streptomycin was used under the same conditions on each test organism for a comparison.

Assay [11] concerns Escherchia coli. The assay is described as above. The note with it: 24 h; no colonies observed; brain-heart infusion agar, 35° C., one day; max. tested 500 ppm; read-out: Minimum Inhibitory Concentration (MIC). How it is done: as §1, §3
For assay [12], the system named is Klebsiella pneumoneae. The assay is described as above. The note with it: 24 h, read-out: Minimum Inhibitory Concentration (MIC). How it is done: as §1, §3
In assay [13] the test system is Pseudomonas aeruginosa. Described as above. The settings on record: 24 h, read-out: Minimum Inhibitory Concentration (MIC). As to the method:
as §1, §3

For assay [14], the system named is Bacillus cereus. The assay is described as follows: Biocidal effect on bacteria, gram-positive (agar plate). The note with it: 24 h, read-out: Minimum Inhibitory Concentration (MIC). How it is done:
as §1, §3

Assay [15] relates to Micrococcus liteus. Described as above. The settings on record: 48 h, read-out: Minimum Inhibitory Concentration (MIC). How it is done:
as §1, §3

Assay [16] concerns Streptococcus faciens. The description is as above. The note with it: 24 h, read-out: Minimum Inhibitory Concentration (MIC). How it is done:
as §1, §3

Assay [17] relates to fungi. The experiment in a line: Fungicidal effect against a variety of fungi (overall statement). The settings on record: at the concentrations tested. How it is done: as §1, §2
Assay [18] deals with gram-positive bacteria. The experiment in a line: Effect against gram-positive bacteria compared with streptomycin (overall statement). The note with it: versus streptomycin under the same conditions. As to the method: as §1, §3
For assay [19], the system named is bacteria. The experiment in a line: Bactericidal effect (overall statement). The settings on record: at the concentrations tested. How it is done:
as §1, §3

Setting [20] is: no colonies observed, brain-heart infusion agar, 35° C., one day, max. tested 500 ppm.
[21] abbreviates: no colonies observed, brain-heart infusion agar, 35° C., two days, max. tested 500 ppm.

Values after ≈ are worked out from the molar mass of the structure shown. Read-outs that look alike come from different tables or passages of the source.

For the molecule `CCCCCCSC1c2c(O)cc(O)cc2OC(c2ccc(O)c(O)c2)C1O` (stereo not shown) [C6], the MIC was 800 µg/mL in [1]; 250 µg/mL in assay [2]; 500 µg/mL in [3]; 1000 µg/mL in assay [4]; 500 µg/mL in assay [5]; 500 µg/mL in [6]. Also, the MIC turned out to be 500 µg/mL in [7]; 800 µg/mL in assay [8]; 80 µg/mL in assay [9]; 300 µg/mL (≈ 738 µM) in assay [10] (setting [20]); 300 µg/mL (≈ 738 µM) in assay [11]; 500 µg/mL (≈ 1230 µM) in assay [12] (setting [20]). Further, the MIC in assay [13] (setting [20]) stood at 500 µg/mL (≈ 1230 µM); in [14] (setting [20]), 80 µg/mL (≈ 197 µM); in assay [15] (setting [21]), 50 µg/mL (≈ 123 µM); in assay [16] (setting [20]), 200 µg/mL (≈ 492 µM).
For `CCCCCCCCSC1c2c(O)cc(O)cc2OC(c2ccc(O)c(O)c2)C1O` (stereo not shown) [C8], the MIC in [1] turned out to be 250 µg/mL; in assay [2], 100 µg/mL; in [3] it was 1000 µg/mL; in assay [4], 1000 µg/mL; in assay [5], 250 µg/mL; in assay [6], 1000 µg/mL. The MIC in [7] amounted to 1000 µg/mL; in [8], 400 µg/mL; in assay [9], 25 µg/mL; in assay [11] it was 500 µg/mL (≈ 1150 µM); in [12] (setting [20]), 500 µg/mL (≈ 1150 µM); in [14] (setting [20]), 20 µg/mL (≈ 46 µM). The MIC in assay [15] (setting [21]) was 40 µg/mL (≈ 92 µM); in [16] (setting [20]), 60 µg/mL (≈ 138 µM). For the same molecule, the fungicidal properties entry in assay [17] is “effective fungicide”.
Take `CCCCCCCCCCSC1c2c(O)cc(O)cc2OC(c2ccc(O)c(O)c2)C1O` (stereo not shown) [C10]: the MIC in assay [1] came out at 200 µg/mL; in assay [2] it was 50 µg/mL; in assay [4], 1000 µg/mL; in assay [5], 1000 µg/mL; in assay [8], 300 µg/mL; in [9], 8 µg/mL. Also, the MIC in assay [10] (setting [20]) turned out to be 500 µg/mL (≈ 1080 µM); in [11] it was 500 µg/mL (≈ 1080 µM); in assay [12] (setting [20]), 500 µg/mL (≈ 1080 µM); in assay [13] (setting [20]), 300 µg/mL (≈ 648 µM); in assay [14] (setting [20]), 5 µg/mL (≈ 10.8 µM); in [15] (setting [21]) it was 5 µg/mL (≈ 10.8 µM). In addition, the MIC in assay [16] (setting [20]) is 30 µg/mL (≈ 64.8 µM). Besides, the fungicidal properties entry in assay [17] is given as “effective fungicide”. Besides, in assay [18], the “effectiveness against gram-positive bacteria compared with streptomycin” value is on record as “substantially more effective”.
Turning to `CCCCCCCCCCCCSC1c2c(O)cc(O)cc2OC(c2ccc(O)c(O)c2)C1O` (stereo not shown) [C12], the MIC in assay [1], in [2], in [3], in assay [4], in assay [5] and in assay [6] was 1000 µg/mL throughout. Besides, the MIC in assay [7] turned out to be 1000 µg/mL; in assay [8], 1000 µg/mL; in assay [9], 100 µg/mL; in assay [11], 500 µg/mL (≈ 1020 µM); in assay [12] (setting [20]), 500 µg/mL (≈ 1020 µM); in assay [14] (setting [20]) it was 50 µg/mL (≈ 102 µM). Besides, the values for the MIC in assay [15] (setting [21]) and in assay [16] (setting [20]) were 50 µg/mL (≈ 102 µM) and 75 µg/mL (≈ 153 µM), respectively.
Regarding `CCCCCCCCCCCCCCCCSC1c2c(O)cc(O)cc2OC(c2ccc(O)c(O)c2)C1O` (stereo not shown) [C16], the MIC in assay [1] was 1000 µg/mL; in [2], 1000 µg/mL; in assay [4], 1000 µg/mL; in assay [5] it was 1000 µg/mL; in [8], 1000 µg/mL; in assay [9], 200 µg/mL. Moreover, the MIC stood at 500 µg/mL (≈ 914 µM) in assay [10] (setting [20]); 500 µg/mL (≈ 914 µM) in [11]; 500 µg/mL (≈ 914 µM) in assay [12] (setting [20]); 50 µg/mL (≈ 91.4 µM) in assay [13] (setting [20]); 75 µg/mL (≈ 137 µM) in [14] (setting [20]); 75 µg/mL (≈ 137 µM) in assay [15] (setting [21]). Moreover, the MIC in assay [16] (setting [20]) came out at 100 µg/mL (≈ 183 µM).
In the case of `Oc1cc(O)c2c(c1)O[C@H](c1ccc(O)c(O)c1)[C@H](O)C2` [Epicatechin, reference compound], the fungicidal properties entry in [17] is “no fungicidal”. The bactericidal properties result in assay [19] is on record as “minimal bactericidal properties”.
Consider `[H]/N=C(/N)N[C@H]1[C@H](O)[C@@H](O)[C@H](O[C@@H]2O[C@@H](C)[C@](O)(C=O)[C@H]2O[C@@H]2O[C@@H](CO)[C@H](O)[C@@H](O)[C@@H]2NC)[C@@H](N/C(N)=N\[H])[C@@H]1O` [Strep, Streptomycin, reference compound], for which the MIC amounted to 1 µg/mL (≈ 1.72 µM) in assay [10]; 5 µg/mL (≈ 8.6 µM) in assay [11]; 8 µg/mL (≈ 13.8 µM) in [12]; 50 µg/mL (≈ 86 µM) in [13]; 20 µg/mL (≈ 34.4 µM) in assay [14]; 8 µg/mL (≈ 13.8 µM) in [15]. The MIC in assay [16] was 50 µg/mL (≈ 86 µM).
